Reference: patent US4544629A, “Receptor-based histamine assay” (Minnesota Mining and Manufacturing Company, priority 1982, dated 1985)
Counter-ions that a name gives are not always drawn. Like-named read-outs stand apart in the source and are kept apart here. Each block holds one compound with its values, some of them ahead of it.

How the values were obtained:
[1] = tested on: histamine receptor
Experimental: (§1) Samples of 200 microliters of heat-inactivated fetal calf sera were added to each well of a polystyrene microtiter plate as a protein pretreatment and the seracontaining plates were incubated at 25° C. for 15 minutes. Each well was then washed twice with phosphate-buffered saline. To each well was added 200 microliters of 1 millimolar trinitrobenzene sulfonate in phosphate-buffered saline, and the plate was incubated at 37° C. for thirty minutes. Each well was then washed three times with phosphate-buffered saline. To each well was then added 200 microliters of histamine receptor in phosphate buffered saline prepared according to the procedure of EXAMPLE 1. The plate was then incubated at 25° C. for thirty minutes. After the incubation, each well was washed three times with phosphate-buffered saline and the plates were allowed to air dry at 25° C. for about 16 hours, then stored at 4° C.

[2] = tested on: histamine receptor on whole cells
Experimental: The reaction was stopped with 1N aqueous sodium hydroxide and the product formed was quantified spectrophotometrically. The total enzyme activity was determined by incubating 10 microliters of the dilutions of histamine-enzyme with the enzyme substrate for 60 minutes, stopping the reaction with lN aqueous sodium hydroxide and quantifying the product formed.

[3] = tested on: cell surface histamine receptors; details: phosphate-buffered saline
Experimental: (§2) In order to free the histamine receptors from the cell wall, the cells were washed three times in phosphate buffered saline, resuspended at a concentration of 1×10^7 cells per ml in phosphate-buffered saline and either stored at 4° C. for three days or incubated at 46° C. for 90 minutes. The cells were then centrifuged at 1000 X G for ten minutes. The supernatant liquid containing the shed histamine receptors was removed by aspiration and the cell pellet discarded.
as §1
(§3) Cell surface histamine receptors prepared as described in EXAMPLE 1 were affixed to microtiter plate wells by protein pretreatment (see EXAMPLE 2) of the plate followed by surface activation with 1 millimolar trinitrobenzene sulfonate as described in EXAMPLE 2.
(§4) The various quantities of histamine in phosphate-buffered saline were incubated in several replications with the receptor. […] After washing out the unbound indicator, para-nitrophenyl phosphate was added and incubated for 1 hour at 37° C. The enzymatic reaction was stopped with 1N aqueous sodium hydroxide and the absorbance at A410 read from a Beckman spectrophotometer.

[4] = tested on: histamine receptor on whole cells; details: 1×10^6 cells
Experimental: (§5) To determine the sensitivity of the histamine assay, an inhibition assay was performed using whole cells with histamine in 0.01M phosphate-bufferedsaline as the inhibitor. The histamine was incubated with 1×10^6cells for 30 minutes. The unbound inhibitor was washed out and the histamine-enzyme added and incubated 30 minutes. After washing out the unbound indicator, the enzyme substrate, p-nitrophenyl phosphate was added and incubated for 1 hour at 37° C. The enzymatic reaction was stopped with 1N aqueous sodium hydroxide and the absorbance at A410 read from a Beckman spectrophotometer. The amount of product formed was inversely proportional to the amount of free histamine bound to the cells.

[5] = tested on: histamine receptors attached to a solid phase; details: anticoagulated human whole blood
Experimental: as §5, §3, §4
Using the method described in EXAMPLES 6 and 7, the sensitivity of the assay to histamine dissolved in anticoagulated human whole blood was measured.

[6] = tested on: histamine receptor; details: read at 510 nm, blank .400, background .095
Experimental: as §2, §1

Average 3H Counts per minute ([1]; control wells (nonspecific binding)): 1172 Counts per minute
Average 3H Counts per minute ([1]; receptor wells): 7968 Counts per minute
SMILES: [3H]c1nc(CCN)c([3H])[nH]1 [3H-labeled histamine, 2,5-^3 H-histamine hydrochloride]

Percent inhibition of enzyme activity ([5]; 1 ng histamine added): 49%
Percent inhibition of enzyme activity ([5]; 5 ng histamine added): 70%
Percent inhibition of enzyme activity ([5]; 10 ng histamine added): 79%
Percent inhibition of enzyme activity ([5]; 25 ng histamine added): 91%
Absorbance ([6]; 25 micrograms histamine per well): .310
Absorbance ([6]; 50 micrograms histamine per well): .285
Absorbance ([6]; 75 micrograms histamine per well): .205
Absorbance ([6]; 100 micrograms histamine per well): .125
SMILES: NCCc1c[nH]cn1 [Histamine, histamine]
Inhibition of receptor-bound histamine-enzyme stimulation [2]: inhibitable
Effect of added histamine on the enhanced enzyme activity ([2]; histamine added before incubation with histamine-alkaline phosphatase): inhibited
Percent inhibition of enzyme activity ([3]; 0.05 ng histamine added): 30%
Percent inhibition of enzyme activity ([3]; 0.1 ng histamine added): 40%
Percent inhibition of enzyme activity ([3]; 0.25 ng histamine added): 46%
Percent inhibition of enzyme activity ([3]; 0.5 ng histamine added): 52%
Percent inhibition of enzyme activity ([3]; 1 ng histamine added): 60%
Percent inhibition of enzyme activity ([3]; 5 ng histamine added): 65%
Percent inhibition of enzyme activity ([3]; 10 ng histamine added): 72%
Percent inhibition of enzyme activity ([3]; 25 ng histamine added): 79%
Percent inhibition of enzyme activity ([4]; histamine added 500 pg): 7%
Percent inhibition of enzyme activity ([4]; histamine added 5 ng): 14%
Percent inhibition of enzyme activity ([4]; histamine added 50 ng): 24%
Percent inhibition of enzyme activity ([4]; histamine added 500 ng): 32%
Percent inhibition of enzyme activity ([4]; histamine added 5 g (so in the source)): 45%
Percent inhibition of enzyme activity ([4]; histamine added 50 g (so in the source)): 69%
